Assay results from patent US20170275270A1, “BENZYL SUBSTITUTED INDAZOLES” (Bayer Pharma Aktiengesellschaft, priority 2014, published 2017).
Like-named read-outs stand apart in the source and are kept apart here.

Legend:
[1] = test system: HeLa human cervical tumor cells; assay: Proliferation assay (HeLa+Paclitaxel); conditions: read-out: Biological Assay 3: HeLa + Paclitaxel IC50, 3 nM paclitaxel, crystal violet;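 further: compounds at 0.001-10 µM added 4 h after paclitaxel, 92 h exposure, absorbance normalized to zero-point plate (0%) and untreated cells (100%), IC50 from 4-parameter fit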
Description: Proliferation Assay (HeLa+Paclitaxel):
Cultivated HeLa human cervical tumor cells (DSMZ ACC-57) were plated at a density of 3000 cells/well in a 96-well multititer plate in 200 μL of growth medium supplemented 10% fetal calf serum. After 24 hours, the cells of one plate (zero-point plate) were stained with crystal violet (see below). The medium of the other plates was supplemented with 3 nM of paclitaxel (Sigma-Aldrich) and the cells were incubated at 37° C. After 4 hours the test substances were added in various concentrations (0 μM, as well as in the range of 0.001-10 μM; the final concentration of the solvent dimethyl sulfoxide was adjusted to 0.1%) using a Hewlett-Packard HP D300 Digital Dispenser. The cells were incubated for another 92 hours at 37° C. in the presence of test substances. Cell proliferation was determined by staining the cells with crystal violet: the cells were fixed by adding 20 μL/measuring point of an 11% glutaric aldehyde solution for 15 minutes at room temperature. After three washing cycles of the fixed cells with water, the plates were dried at room temperature. The cells were stained by adding 100 μL/measuring point of a 0.1% crystal violet solution (pH 3.0). After three washing cycles of the stained cells with water, the plates were dried at room temperature. The dye was dissolved by adding 100 μL/measuring point of a 10% acetic acid solution. […] The change of cell number, in percent, was calculated by normalization of the measured values to the absorbtion values of the zero-point plate (=0%) and the absorbtion of the untreated (0 μm) cells (=100%). The IC50 values were determined by means of a 4 parameter fit.

Bub1 = Bub1 (Homo sapiens, UniProt O43683); assay: Formation-Assay: phosphorylation status of histone 2A by inhibition of kinase activity of Bub1; format: cell-based; conditions: Biological Assay 4.1: H2A Formation IC50, co-treatment with Nocodazole 1 μg/ml, 16 h
In short: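 Cells co-treated 16 h with Nocodazole (1 μg/ml) and compound (3 nM–10 μM), then fixed and immunostained for phospho-H2A, read by infrared imaging (800 nm) normalised to cell stain (700 nm). Nocodazole-only set as 100%, untreated cells as 0%.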

[2] = target: T1, catalytic domain of human Bub1 (amino acids 704-1085) (Homo sapiens, UniProt O43683); assay: Bub1 kinase assay (TR-FRET); format: biochemical
T1 construct: catalytic domain of human Bub1 (amino acids 704-1085); His6 (N); made in house; host or cells: Hi5 insect cells
In short: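 TR-FRET read-out (Eu-anti-mouse IgG/anti-phosphoserine antibody to streptavidin-XL665 on biotinylated peptide) after EDTA stop and 1 h complex formation at 22° C. Kinase reaction ran 60 min at 22° C with 1:3.4 serial dilutions from 2 mM DMSO stocks. IC50 from 4-parameter logistic fit of normalized inhibition.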

HeLa = assay: Proliferation assay (HeLa cell line); conditions: Homo sapiens, 96 h, read-out: Biological Assay 2: Proliferation assay (HeLa cell line) median IC50;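 further: crystal violet staining of cell number, scaled between a plate stained before dosing (0%) and cells left untreated (100%), compounds tested at 0.001-10 µM, IC50 via 4-parameter fit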
[3] = Biological Assay 1: Bub1 kinase assay median IC50, 10 μM ATP
[4] = 10 μM ATP, read-out: Biological Assay 1: Bub1 kinase assay median IC50

T1 sequence (O43683 704-1085): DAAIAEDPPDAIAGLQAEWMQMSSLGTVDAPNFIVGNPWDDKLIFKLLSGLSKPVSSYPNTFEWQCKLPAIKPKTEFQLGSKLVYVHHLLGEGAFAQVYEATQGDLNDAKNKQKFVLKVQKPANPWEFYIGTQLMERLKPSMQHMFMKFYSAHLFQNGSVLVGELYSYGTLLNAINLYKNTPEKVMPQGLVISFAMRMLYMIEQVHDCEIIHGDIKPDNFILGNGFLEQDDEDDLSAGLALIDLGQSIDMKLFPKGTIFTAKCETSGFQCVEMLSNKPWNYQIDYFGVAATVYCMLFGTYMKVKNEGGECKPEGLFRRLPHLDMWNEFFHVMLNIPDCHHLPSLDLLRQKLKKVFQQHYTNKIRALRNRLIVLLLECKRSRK
Chain of Bub1 (O43683 whole entry): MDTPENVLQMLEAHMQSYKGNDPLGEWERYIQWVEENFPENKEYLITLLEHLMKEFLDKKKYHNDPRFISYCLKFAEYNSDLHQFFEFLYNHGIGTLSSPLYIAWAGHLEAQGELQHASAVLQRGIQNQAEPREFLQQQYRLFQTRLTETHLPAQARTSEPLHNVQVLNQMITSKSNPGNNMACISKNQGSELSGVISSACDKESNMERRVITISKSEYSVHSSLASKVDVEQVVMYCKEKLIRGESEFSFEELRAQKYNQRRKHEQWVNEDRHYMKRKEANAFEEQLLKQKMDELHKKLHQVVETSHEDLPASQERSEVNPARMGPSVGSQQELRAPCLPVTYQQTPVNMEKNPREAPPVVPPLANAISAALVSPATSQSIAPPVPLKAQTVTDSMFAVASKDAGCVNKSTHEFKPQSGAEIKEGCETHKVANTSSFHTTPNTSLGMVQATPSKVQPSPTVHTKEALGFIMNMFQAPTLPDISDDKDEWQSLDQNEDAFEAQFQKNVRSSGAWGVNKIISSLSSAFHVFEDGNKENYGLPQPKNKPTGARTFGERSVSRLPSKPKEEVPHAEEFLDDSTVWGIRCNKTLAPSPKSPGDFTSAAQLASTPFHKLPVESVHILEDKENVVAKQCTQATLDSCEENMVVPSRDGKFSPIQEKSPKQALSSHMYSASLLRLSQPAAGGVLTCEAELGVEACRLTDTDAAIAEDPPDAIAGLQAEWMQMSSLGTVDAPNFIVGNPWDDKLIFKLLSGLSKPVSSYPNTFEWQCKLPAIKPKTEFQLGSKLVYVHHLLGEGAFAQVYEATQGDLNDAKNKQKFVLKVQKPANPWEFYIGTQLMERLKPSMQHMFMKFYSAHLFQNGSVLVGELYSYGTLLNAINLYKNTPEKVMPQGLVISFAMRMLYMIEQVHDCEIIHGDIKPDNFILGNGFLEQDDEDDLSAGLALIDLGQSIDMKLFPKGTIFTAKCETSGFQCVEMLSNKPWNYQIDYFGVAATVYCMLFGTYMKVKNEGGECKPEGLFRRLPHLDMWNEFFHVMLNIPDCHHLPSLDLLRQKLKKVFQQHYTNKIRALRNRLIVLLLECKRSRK

| Structure (SMILES) | IC50 [1] [nM] | IC50 (Bub1) [nM] | IC50 [2, 3] [nM] | IC50 (HeLa) [nM] | IC50 [2, 4] [nM] |
| --- | --- | --- | --- | --- | --- |
| CCOc1cc(F)c(Cn2nc(-c3nc(COC)cc(Nc4ccncc4)n3)c3ccccc32)c(F)c1 [Example 2-12-4, 2-[1-(4-ethoxy-2,6-difluorobenzyl)-1H-indazol-3-yl]-6-(methoxymethyl)-N-(pyridin-4-yl)pyrimidin-4-amine] | 420 | 8.9 | 5.2 | 1800 |  |
| CCOc1cc(F)c(Cn2nc(-c3nc(C)c(F)c(Nc4ccncc4)n3)c3ccccc32)c(F)c1 [Example 2-12-5, 2-[1-(4-ethoxy-2,6-difluorobenzyl)-1H-indazol-3-yl]-5-fluoro-6-methyl-N-(pyridin-4-yl)pyrimidin-4-amine] | 920 | 390 |  | 1300 | 6.5 |
| CCOc1cc(F)c(Cn2nc(-c3nc4c(c(Nc5ccnc(C)c5)n3)CCC4)c3ccccc32)c(F)c1 [Example 2-12-6, 2-[1-(4-ethoxy-2,6-difluorobenzyl)-1H-indazol-3-yl]-N-(2-methylpyridin-4-yl)-6,7-dihydro-5H-cyclopenta[d]pyrimidin-4-amine] | 330 | 6 |  | 1200 | 11 |
| CCOc1cc(F)c(Cn2nc(-c3nc(CC)cc(Nc4ccncc4)n3)c3ccccc32)c(F)c1 [Example 2-12-9, 2-[1-(4-ethoxy-2,6-difluorobenzyl)-1H-indazol-3-yl]-6-ethyl-N-(pyridin-4-yl)pyrimidin-4-amine] | 540 | 11 | 21 | 3700 |  |
| CCOc1cc(F)c(Cn2nc(-c3nc(CN4CCOCC4)cc(Nc4ccncc4)n3)c3ccccc32)c(F)c1 [Example 2-12-12, 2-[1-(4-ethoxy-2,6-difluorobenzyl)-1H-indazol-3-yl]-6-(morpholin-4-ylmethyl)-N-(pyridin-4-yl)pyrimidin-4-amine] | < 100 | 3.6 |  | 3600 | 6.8 |
| CCOc1cc(F)c(Cn2nc(-c3nc(CN4CCOCC4)cc(Nc4ccncc4C)n3)c3ccccc32)c(F)c1 [Example 2-12-13, 2-[1-(4-ethoxy-2,6-difluorobenzyl)-1H-indazol-3-yl]-N-(3-methylpyridin-4-yl)-6-(morpholin-4-ylmethyl)pyrimidin-4-amine] | 89 | 6.6 |  | 3400 | 6 |
| CCOc1cc(F)c(Cn2nc(-c3nc(CN4CCOCC4)cc(Nc4ccnc(NC(C)=O)c4)n3)c3ccccc32)c(F)c1 [Example 2-12-14, N-[4-({2-[1-(4-ethoxy-2,6-difluorobenzyl)-1H-indazol-3-yl]-6-(morpholin-4-ylmethyl)pyrimidin-4-yl}amino)pyridin-2-yl]acetamide] | 100 | 11 |  | 1800 | 8.8 |
| CCOc1cc(F)c(Cn2nc(-c3nc4c(c(Nc5ccncc5C)n3)CCN(Cc3ccccc3)C4)c3ccccc32)c(F)c1 [Example 2-12-16, 7-benzyl-2-[1-(4-ethoxy-2,6-difluorobenzyl)-1H-indazol-3-yl]-N-(3-methylpyridin-4-yl)-5,6,7,8-tetrahydropyrido[3,4-d]pyrimidin-4-amine] | 130 | 57 | 290 | 1000 |  |
| CCOc1cc(F)c(Cn2nc(-c3nc4c(c(Nc5ccnc(NC(C)=O)c5)n3)CCC4)c3ccccc32)c(F)c1 [Example 2-12-18, N-[4-({2-[1-(4-ethoxy-2,6-difluorobenzyl)-1H-indazol-3-yl]-6,7-dihydro-5H-cyclopenta[d]pyrimidin-4-yl}amino)pyridin-2-yl]acetamide] | 250 | 4.1 |  | 2000 | 8.4 |
| CCOc1cc(F)c(Cn2nc(-c3nc(COC)cc(Nc4ccnc(NC(C)=O)c4)n3)c3ccccc32)c(F)c1 [Example 2-12-20, N-[4-({2-[1-(4-ethoxy-2,6-difluorobenzyl)-1H-indazol-3-yl]-6-(methoxymethyl)pyr-imidin-4-yl}amino)pyridin-2-yl]acetamide] | 330 | 2.9 | 5.3 | 2800 |  |
| CCOc1cc(F)c(Cn2nc(-c3nc(CC)cc(Nc4ccnc(NC(C)=O)c4)n3)c3ccccc32)c(F)c1 [Example 2-12-22, N-[4-({2-[1-(4-ethoxy-2,6-difluorobenzyl)-1H-indazol-3-yl]-6-ethylpyrimidin-4-yl}amino)pyridin-2-yl]acetamide] | 750 | 35 | 9.3 | 1200 |  |
| CCOc1cc(F)c(Cn2nc(-c3nc(C)c(Cl)c(Nc4ccncc4)n3)c3ccccc32)c(F)c1 [Example 2-12-23, 5-chloro-2-[1-(4-ethoxy-2,6-difluorobenzyl)-1H-indazol-3-yl]-6-methyl-N-(pyridin-4-yl)pyrimidin-4-amine] | 380 | 10 |  | > 10000 | 23 |
| CCOc1cc(F)c(Cn2nc(-c3nc(CN4CCOCC4)cc(Nc4ccnc(S(C)(=O)=O)c4)n3)c3ccccc32)c(F)c1 [Example 2-12-33, 2-[1-(4-ethoxy-2,6-difluorobenzyl)-1H-indazol-3-yl]-N-[2-(methylsulfonyl)pyridin-4-yl]-6-(morpholin-4-ylmethyl)pyrimidin-4-amine] | 400 | 370 |  | 8300 | 520 |
| CCOc1cc(F)c(Cn2nc(-c3nc(CN4CCOCC4)cc(Nc4ccncc4Cl)n3)c3ccccc32)c(F)c1 [Example 2-12-34, N-(3-chloropyridin-4-yl)-2-[1-(4-ethoxy-2,6-difluorobenzyl)-1H-indazol-3-yl]-6-(morpholin-4-ylmethyl)pyrimidin-4-amine] | 500 | 700 |  | 7800 | 36 |
| CCOc1cc(F)c(Cn2nc(-c3nc(CN4CCOCC4)cc(Nc4ccnnc4)n3)c3ccccc32)c(F)c1 [Example 2-12-35, N-{2-[1-(4-ethoxy-2,6-difluorobenzyl)-1H-indazol-3-yl]-6-(morpholin-4-ylmethyl)pyrimidin-4-yl}pyridazin-4-amine] | 590 | 14 |  | 10000 | 17 |
| CCOc1cc(F)c(Cn2nc(-c3nc(CN4CCOCC4)cc(Nc4ccncn4)n3)c3ccccc32)c(F)c1 [Example 2-12-47, 2-[1-(4-ethoxy-2,6-difluorobenzyl)-1H-indazol-3-yl]-6-(morpholin-4-ylmethyl)-N-(pyrimidin-4-yl)pyrimidin-4-amine] | 68 | 2100 |  | 6100 | 5.2 |
| CCOc1cc(F)c(Cn2nc(-c3nc(COC)cc(Nc4ccnc(C)c4)n3)c3ccccc32)c(F)c1 [Example 2-12-48, 2-[1-(4-ethoxy-2,6-difluorobenzyl)-1H-indazol-3-yl]-6-(methoxymethyl)-N-(2-methylpyridin-4-yl)pyrimidin-4-amine] | 180 | 1100 | 21 | 1200 |  |
| COCc1cc(Nc2ccncc2C)nc(-c2nn(Cc3c(F)cc(OCCO)cc3F)c3ccccc23)n1 [Example 2-12-50, 2-{3,5-difluoro-4-[(3-{4-(methoxymethyl)-6-[(3-methylpyridin-4-yl)amino]pyrimidin-2-yl}-1H-indazol-1-yl)methyl]phenoxy}eth-anol] | 1300 | 23 | 5.4 | 970 |  |
| COCc1cc(Nc2ccnc(C)c2)nc(-c2nn(Cc3c(F)cc(OCCO)cc3F)c3ccccc23)n1 [Example 2-12-51, 2-{3,5-difluoro-4-[(3-{4-(methoxymethyl)-6-[(2-methylpyridin-4-yl)amino]pyrimidin-2-yl}-1H-indazol-1-yl)methyl]phenoxy}eth-anol] | 340 | 570 | 45 | 410 |  |
| CCOc1cc(F)c(Cn2nc(-c3nc4c(c(Nc5ncncn5)n3)CCC4)c3ccccc32)c(F)c1 [Example 2-12-52, 2-[1-(4-ethoxy-2,6-difluorobenzyl)-1H-indazol-3-yl]-N-(1,3,5-triazin-2-yl)-6,7-dihydro-5H-cyclopenta[d]pyrimidin-4-amine] | 990 | 25 |  | 1100 | 100 |
| CCOc1cc(F)c(Cn2nc(-c3nc4c(c(Nc5cnnc(Cl)c5)n3)CCC4)c3ccccc32)c(F)c1 [Example 2-12-53, N-(6-chloropyridazin-4-yl)-2-[1-(4-ethoxy-2,6-difluorobenzyl)-1H-indazol-3-yl]-6,7-dihydro-5H-cyclopenta[d]pyrimidin-4-amine] | 510 | 140 |  | > 10000 | 660 |
| CCOc1cc(F)c(Cn2nc(-c3nc4c(c(Nc5ccnc(C)n5)n3)CCC4)c3ccccc32)c(F)c1 [Example 2-12-54, 2-[1-(4-ethoxy-2,6-difluorobenzyl)-1H-indazol-3-yl]-N-(2-methylpyrimidin-4-yl)-6,7-dihydro-5H-cyclopenta[d]pyrimidin-4-amine] | 180 | 14 | 31 | 3300 |  |
